PubChem BioAssay (NCI)
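Tested at 5 concentrations; 48 h exposure; 96-well plates; endpoints linearly interpolated, else capped at highest concentration. GI50 is the concentration that inhibits growth by half. The concentration for full growth arrest is given as TGI.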

Experiments:
Assay in all cases: NCI anticancer screen, dose series, 48 h
LOX IMVI melanoma = system: LOX IMVI melanoma
SF-295 CNS = system: SF-295 CNS
HOP-92 NSCLC = system: HOP-92 NSCLC
IGROV1 ovarian = system: IGROV1 ovarian
ACHN renal = system: ACHN renal
MCF7 breast = system: MCF7 breast
HT29 colon = system: HT29 colon
OVCAR-5 ovarian = system: OVCAR-5 ovarian
T-47D breast = system: T-47D breast
RPMI-8226 leukemia = system: RPMI-8226 leukemia
HOP-62 NSCLC = system: HOP-62 NSCLC
SR leukemia = system: SR leukemia
DU-145 prostate = system: DU-145 prostate
MDA-MB-231 breast = system: MDA-MB-231 breast
NCI-H460 lung = system: NCI-H460 lung
786-0 renal = system: 786-0 renal
NCI-H226 lung = system: NCI-H226 lung
HCT-116 colon = system: HCT-116 colon
A549 NSCLC = system: A549 NSCLC
OVCAR-8 ovarian = system: OVCAR-8 ovarian
COLO 205 colon = system: COLO 205 colon
U251 CNS = system: U251 CNS
KM12 colon = system: KM12 colon
RXF 393 renal = system: RXF 393 renal
HS 578T breast = system: HS 578T breast
MOLT-4 leukemia = system: MOLT-4 leukemia
M14 melanoma = system: M14 melanoma
CAKI-1 renal = system: CAKI-1 renal
TK-10 renal = system: TK-10 renal
SK-MEL-2 melanoma = system: SK-MEL-2 melanoma
SK-MEL-5 melanoma = system: SK-MEL-5 melanoma
SK-OV-3 ovarian = system: SK-OV-3 ovarian
A498 renal = system: A498 renal
SW-620 colon = system: SW-620 colon
UO-31 renal = system: UO-31 renal
NCI-H522 lung = system: NCI-H522 lung
NCI-H23 lung = system: NCI-H23 lung
OVCAR-3 ovarian = system: OVCAR-3 ovarian
UACC-257 melanoma = system: UACC-257 melanoma
HCC-2998 colon = system: HCC-2998 colon
SNB-19 CNS = system: SNB-19 CNS
HCT-15 colon = system: HCT-15 colon
NCI/ADR-RES ovarian = system: NCI/ADR-RES ovarian
MALME-3M melanoma = system: MALME-3M melanoma
SN12C renal = system: SN12C renal
SF-539 CNS = system: SF-539 CNS
SF-268 CNS = system: SF-268 CNS
SNB-75 CNS = system: SNB-75 CNS
K-562 leukemia = system: K-562 leukemia
SK-MEL-28 melanoma = system: SK-MEL-28 melanoma
PC-3 prostate = system: PC-3 prostate
BT-549 breast = system: BT-549 breast
OVCAR-4 ovarian = system: OVCAR-4 ovarian
HL-60(TB) leukemia = system: HL-60(TB) leukemia
UACC-62 melanoma = system: UACC-62 melanoma
MDA-MB-435 = system: MDA-MB-435

**Q.** What does the source list for `COc1ccc(C2C=C(c3ccc(OC)c(OC)c3)N=C3SC=CN32)c(Br)c1` (configuration not stated)?
**A.** GI50 (LOX IMVI melanoma): 1.88 µM; TGI (LOX IMVI melanoma): 3.74 µM; GI50 (SF-295 CNS): 11.5 µM; TGI (SF-295 CNS): 26.9 µM; GI50 (HOP-92 NSCLC): 8.66 µM; TGI (HOP-92 NSCLC): 38.3 µM; GI50 (IGROV1 ovarian): 2.25 µM; TGI (IGROV1 ovarian): 5.51 µM; GI50 (ACHN renal): 2 µM; TGI (ACHN renal): 4.33 µM; GI50 (MCF7 breast): 0.807 µM; TGI (MCF7 breast): 2.24 µM; GI50 (HT29 colon): 2.02 µM; TGI (HT29 colon): 4.26 µM; GI50 (OVCAR-5 ovarian): 6.44 µM; TGI (OVCAR-5 ovarian): 28.4 µM; GI50 (T-47D breast): 3.2 µM; TGI (T-47D breast): 11.5 µM; GI50 (RPMI-8226 leukemia): 1.77 µM; TGI (RPMI-8226 leukemia): 5.98 µM; GI50 (HOP-62 NSCLC): 3.16 µM; TGI (HOP-62 NSCLC): 11.1 µM; GI50 (SR leukemia): 1.95 µM; TGI (SR leukemia): 4.79 µM; GI50 (DU-145 prostate): 3.44 µM; TGI (DU-145 prostate): 11.6 µM; GI50 (MDA-MB-231 breast): 4.5 µM; TGI (MDA-MB-231 breast): 21.3 µM; GI50 (NCI-H460 lung): 5.15 µM; TGI (NCI-H460 lung): 25.8 µM; GI50 (786-0 renal): 2.72 µM; TGI (786-0 renal): 8.22 µM; GI50 (NCI-H226 lung): 2.84 µM; TGI (NCI-H226 lung): 25.5 µM; GI50 (HCT-116 colon): 1.52 µM; TGI (HCT-116 colon): 3.25 µM; GI50 (A549 NSCLC): 2.4 µM; TGI (A549 NSCLC): 7.86 µM; GI50 (OVCAR-8 ovarian): 3.2 µM; TGI (OVCAR-8 ovarian): 17.1 µM; GI50 (COLO 205 colon): 4.56 µM; TGI (COLO 205 colon): 16.4 µM; GI50 (U251 CNS): 1.6 µM; TGI (U251 CNS): 3.24 µM; GI50 (KM12 colon): 1.83 µM; TGI (KM12 colon): 3.5 µM; GI50 (RXF 393 renal): 2.08 µM; TGI (RXF 393 renal): 3.98 µM; GI50 (HS 578T breast): 3.41 µM; TGI (HS 578T breast): > 100 µM; GI50 (MOLT-4 leukemia): 3.16 µM; TGI (MOLT-4 leukemia): 30.6 µM; GI50 (M14 melanoma): 2.23 µM; TGI (M14 melanoma): 5.32 µM; GI50 (CAKI-1 renal): 13.4 µM; TGI (CAKI-1 renal): 33.8 µM; GI50 (TK-10 renal): 3.64 µM; TGI (TK-10 renal): 15.3 µM; GI50 (SK-MEL-2 melanoma): 14.4 µM; TGI (SK-MEL-2 melanoma): 29.8 µM; GI50 (SK-MEL-5 melanoma): 3.02 µM; TGI (SK-MEL-5 melanoma): 10.1 µM; GI50 (SK-OV-3 ovarian): 4.52 µM; TGI (SK-OV-3 ovarian): 16.7 µM; GI50 (A498 renal): 3.47 µM; TGI (A498 renal): 17.1 µM; GI50 (SW-620 colon): 1.85 µM; TGI (SW-620 colon): 3.77 µM; GI50 (UO-31 renal): 1.54 µM; TGI (UO-31 renal): 3.77 µM; GI50 (NCI-H522 lung): 3.11 µM; TGI (NCI-H522 lung): 11.7 µM; GI50 (NCI-H23 lung): 9.45 µM; TGI (NCI-H23 lung): 27.3 µM; GI50 (OVCAR-3 ovarian): 2.24 µM; TGI (OVCAR-3 ovarian): 4.91 µM; GI50 (UACC-257 melanoma): 2.98 µM; TGI (UACC-257 melanoma): 12 µM; GI50 (HCC-2998 colon): 2.02 µM; TGI (HCC-2998 colon): 3.71 µM; GI50 (SNB-19 CNS): 7.3 µM; TGI (SNB-19 CNS): 21.6 µM; GI50 (HCT-15 colon): 1.76 µM; TGI (HCT-15 colon): 5.13 µM; GI50 (NCI/ADR-RES ovarian): 4.59 µM; TGI (NCI/ADR-RES ovarian): 61.2 µM; GI50 (MALME-3M melanoma): 13.5 µM; TGI (MALME-3M melanoma): 32.6 µM; GI50 (SN12C renal): 4.77 µM; TGI (SN12C renal): 21.2 µM; GI50 (SF-539 CNS): 1.87 µM; TGI (SF-539 CNS): 4.18 µM; GI50 (SF-268 CNS): 3.42 µM; TGI (SF-268 CNS): 14.3 µM; GI50 (SNB-75 CNS): 3.1 µM; TGI (SNB-75 CNS): 14.3 µM; GI50 (K-562 leukemia): 2.82 µM; TGI (K-562 leukemia): > 100 µM; GI50 (SK-MEL-28 melanoma): 2.3 µM; TGI (SK-MEL-28 melanoma): 5.62 µM; GI50 (PC-3 prostate): 3.88 µM; TGI (PC-3 prostate): 41 µM; GI50 (BT-549 breast): 2.1 µM; TGI (BT-549 breast): 5.71 µM; GI50 (OVCAR-4 ovarian): 7.1 µM; TGI (OVCAR-4 ovarian): 49.4 µM; GI50 (HL-60(TB) leukemia): 3.06 µM; TGI (HL-60(TB) leukemia): 23 µM; GI50 (UACC-62 melanoma): 2.47 µM; TGI (UACC-62 melanoma): 7.06 µM; GI50 (MDA-MB-435): 2.8 µM; TGI (MDA-MB-435): 10.5 µM
